# From PMC4588880, “Three genes encoding AOP2, a protein involved in aliphatic glucosinolate biosynthesis, are differentially expressed in Brassica rapa” (Journal of Experimental Botany, 2015)
# Key:
# Experiment in all cases: HPLC of desulfoglucosinolates, conversion to 3-butenyl glucosinolate
# Assay type in all cases: biochemical
# Details in all cases: 10 mM 2-oxoglutarate, 10 mM ascorbate, 200 uM FeSO4, 200 mM sucrose, 28 °C, 4 h
# BrAOP2.1 [1] = biological target: T1, BrAOP2.1 (Brassica rapa, UniProt M4EZD7)
# T1 construct: full-length 439 aa, N-terminal thioredoxin/His fusion (pET-32a), E. coli BL21(DE3), Ni-NTA; chromosome A09
# T1 sequence (M4EZD7 1-439): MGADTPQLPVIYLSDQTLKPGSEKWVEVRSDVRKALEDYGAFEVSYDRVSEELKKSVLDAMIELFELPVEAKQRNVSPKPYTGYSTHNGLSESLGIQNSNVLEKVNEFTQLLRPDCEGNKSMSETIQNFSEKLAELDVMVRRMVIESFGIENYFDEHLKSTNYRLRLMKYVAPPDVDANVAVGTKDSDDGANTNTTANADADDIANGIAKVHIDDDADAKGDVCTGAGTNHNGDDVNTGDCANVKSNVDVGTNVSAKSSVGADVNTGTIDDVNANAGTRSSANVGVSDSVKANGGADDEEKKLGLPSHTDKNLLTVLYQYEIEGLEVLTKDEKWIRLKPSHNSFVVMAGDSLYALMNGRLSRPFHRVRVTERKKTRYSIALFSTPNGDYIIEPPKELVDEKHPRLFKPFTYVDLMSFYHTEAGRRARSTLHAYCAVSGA
# BrAOP2.3 = biological target: T2, BrAOP2.3 (Brassica rapa, UniProt M4DPT0)
# T2 construct: full-length 428 aa, N-terminal thioredoxin/His fusion (pET-32a), E. coli BL21(DE3), Ni-NTA; chromosome A02
# T2 sequence (M4DPT0 1-428): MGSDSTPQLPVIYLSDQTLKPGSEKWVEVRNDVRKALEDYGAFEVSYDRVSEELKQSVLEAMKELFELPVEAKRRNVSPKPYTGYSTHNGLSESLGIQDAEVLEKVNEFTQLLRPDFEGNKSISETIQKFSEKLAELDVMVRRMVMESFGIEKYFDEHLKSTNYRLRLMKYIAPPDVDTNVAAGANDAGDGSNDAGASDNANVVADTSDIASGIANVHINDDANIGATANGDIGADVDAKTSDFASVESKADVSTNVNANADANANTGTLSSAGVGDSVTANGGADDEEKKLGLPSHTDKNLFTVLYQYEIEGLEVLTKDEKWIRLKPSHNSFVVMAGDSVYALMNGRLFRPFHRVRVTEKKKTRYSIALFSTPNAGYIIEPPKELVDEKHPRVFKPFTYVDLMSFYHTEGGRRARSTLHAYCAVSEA
# BrAOP2.1 [2] = biological target: T3, BrAOP2.1 (Brassica rapa, UniProt M4EZD7, H308L)
# T3 construct: full-length 439 aa, N-terminal thioredoxin/His fusion (pET-32a), E. coli BL21(DE3), Ni-NTA; chromosome A09
# T3 sequence (M4EZD7 entry or part of it H308L): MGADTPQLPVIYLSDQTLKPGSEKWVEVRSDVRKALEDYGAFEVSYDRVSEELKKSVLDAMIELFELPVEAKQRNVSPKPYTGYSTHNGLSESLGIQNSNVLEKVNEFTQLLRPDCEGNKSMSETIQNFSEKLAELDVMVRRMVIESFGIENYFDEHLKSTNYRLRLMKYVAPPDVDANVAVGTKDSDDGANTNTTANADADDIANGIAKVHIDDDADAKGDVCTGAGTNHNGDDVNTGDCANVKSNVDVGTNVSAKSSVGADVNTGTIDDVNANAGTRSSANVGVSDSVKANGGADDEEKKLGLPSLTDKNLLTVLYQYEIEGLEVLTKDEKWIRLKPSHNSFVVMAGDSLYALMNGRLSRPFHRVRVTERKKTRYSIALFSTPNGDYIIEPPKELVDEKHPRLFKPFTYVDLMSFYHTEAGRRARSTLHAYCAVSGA
structure (smiles),measurement,setting,value
C[S+]([O-])CCCC/C(=N/OS(=O)(=O)O)S[C@@H]1O[C@H](CO)[C@@H](O)[C@H](O)[C@H]1O (stereo partly drawn) [glucoraphanin],"HPLC of desulfoglucosinolates, conversion to 3-butenyl glucosinolate",BrAOP2.1 [1],all three BrAOP2 proteins successfully catalysed the conversion of GRA to NAP
same,"HPLC of desulfoglucosinolates, conversion to 3-butenyl glucosinolate",BrAOP2.3,all three BrAOP2 proteins successfully catalysed the conversion of GRA to NAP
same,"HPLC of desulfoglucosinolates, conversion to 3-butenyl glucosinolate",BrAOP2.1 [2],the purified H308L mutant enzyme was shown to still catalyse the conversion of GRA
